Results published in PMC9963587 (Molecules, 2023).
Entries after “also recorded” stand apart in the source; their conditions may differ. Read-outs that look alike come from different tables or passages of the source.

Legend:
in vitro = details: human
[1] = test system: LASVpv (LASV pseudotyped virus bearing LASV GPC, Josiah strain); assay: microbe, parasite or virus in culture; assay type: cell-based, Lassa virus
LASV GP2 = LASV GP2 (Lassa virus, UniProt P08669); assay: biochemical; assay type: binding; details: for kon: read-out: ka
Sequence of LASV GP2 (P08669 260-491 limits assumed): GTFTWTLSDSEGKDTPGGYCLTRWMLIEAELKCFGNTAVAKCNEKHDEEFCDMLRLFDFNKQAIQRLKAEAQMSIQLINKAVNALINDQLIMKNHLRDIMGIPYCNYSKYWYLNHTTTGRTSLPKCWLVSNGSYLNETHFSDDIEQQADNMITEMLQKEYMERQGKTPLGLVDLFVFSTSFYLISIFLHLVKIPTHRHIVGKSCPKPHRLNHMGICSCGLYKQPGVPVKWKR

[2] = test system: VSV pseudotyped lentivirus (VSVpv); assay type: cell-based, vesicular stomatitis virus
[3] = Mammarenavirus lassaense, HEK293, 48 h

| Compound | melting point [°C] | CC50 (in vitro) [nM] | IC50 [1, 3] [nM] | Kd (LASV GP2) [nM] | kd (LASV GP2) [s⁻¹] | kon (LASV GP2) [M⁻¹ s⁻¹] | IC50 [1] [nM] | inhibition of LASVpv infection (EGFP expression) [1] | antiviral effect against VSVpv infection [2] | CC50 (HEK-293 cells) [nM] | IC50 ([1]; read-out: IC50) [nM] | ka (LASV GP2) [M⁻¹ s⁻¹] | Kd (LASV GP2; read-out: KD) [nM] |
| --- | --- | --- | --- | --- | --- | --- | --- | --- | --- | --- | --- | --- | --- |
| CC(C)Oc1ccc(-n2cnc3cc(/C=C/c4ccc(C(C)(C)C)cc4)ccc32)cc1 [Compound 7a−E, (E)-5-(4-(tert-butyl)styryl)-1-(4-isopropoxyphenyl)-1H-benzo[d]imidazole] | 161 to 162 | > 100000 | > 50 |  |  |  |  |  |  |  |  |  |  |
| CC(C)Oc1ccc(-n2cnc3cc(/C=C\c4ccc(C(C)(C)C)cc4)ccc32)cc1 [Compound 7a−Z, (Z)-5-(4-(tert-butyl)styryl)-1-(4-isopropoxyphenyl)-1H-benzo[d]imidazole] | 172 to 174 | 3010 |  | 146 | 0.04 | 328000 |  |  |  |  |  |  |  |
| CC(C)Oc1ccc(-n2cnc3cc(/C=C/c4ccc(C#N)cc4)ccc32)cc1 [Compound 7b−E, (E)-4-(2-(1-(4-isopropoxyphenyl)-1H-benzo[d]imidazol-5-yl)vinyl) benzonitrile] | 161 to 162 | > 100000 | > 50 |  |  |  |  |  |  |  |  |  |  |
| CC(C)Oc1ccc(-n2cnc3cc(/C=C\c4ccc(C#N)cc4)ccc32)cc1 [Compound 7b−Z, (Z)-4-(2-(1-(4-isopropoxyphenyl)-1H-benzo[d]imidazol-5-yl)vinyl) benzonitrile] | 165 to 166 | 23600 | > 50 | 73400 | 0.28 | 3910 |  |  |  |  |  |  |  |
| Cc1ccc(/C=C/c2ccc3c(c2)ncn3-c2ccc(OC(C)C)cc2)cc1 [Compound 7c−E, (E)-1-(4-isopropoxyphenyl)-5-(4-methylstyryl)-1H-benzo[d]imidazole] | 168 to 170 | > 100000 | > 50 |  |  |  |  |  |  |  |  |  |  |
| Cc1ccc(/C=C\c2ccc3c(c2)ncn3-c2ccc(OC(C)C)cc2)cc1 [Compound 7c−Z, (Z)-1-(4-isopropoxyphenyl)-5-(4-methylstyryl)-1H-benzo[d]imidazole] | 168 to 169 | 20900 | 36.9 | 1180 | 0.07 | 65600 |  |  |  |  |  |  |  |
| CCOc1ccc(/C=C/c2ccc3c(c2)ncn3-c2ccc(OC(C)C)cc2)cc1 [Compound 7d−E, (E)-5-(4-ethoxystyryl)-1-(4-isopropoxyphenyl)-1H-benzo[d]imidazole] | 152 to 153 | > 100000 | > 50 |  |  |  |  |  |  |  |  |  |  |
| CCOc1ccc(/C=C\c2ccc3c(c2)ncn3-c2ccc(OC(C)C)cc2)cc1 [Compound 7d−Z, (Z)-5-(4-ethoxystyryl)-1-(4-isopropoxyphenyl)-1H-benzo[d]imidazole] | 161 to 162 | 17000 | ≤ 15 | 307 | 0.02 | 86500 | 13.6 |  |  |  |  |  |  |
| CC(C)Oc1ccc(-n2cnc3cc(/C=C/c4ccc(OC(F)F)cc4)ccc32)cc1 [Compound 7e−E, (E)-5-(4-(difluoromethoxy)styryl)-1-(4-isopropoxyphenyl)-1H-benzo[d]imidazole] | 173 to 174 | > 100000 | > 50 |  |  |  |  |  |  |  |  |  |  |
| CC(C)Oc1ccc(-n2cnc3cc(/C=C\c4ccc(OC(F)F)cc4)ccc32)cc1 [Compound 7e−Z, (Z)-5-(4-(difluoromethoxy)styryl)-1-(4-isopropoxyphenyl)-1H-benzo[d]imidazole] | 173 to 174 | 17900 | 34.4 | 1980 | 0.08 | 43400 |  |  |  |  |  |  |  |
| CC(C)Oc1ccc(-n2cnc3cc(/C=C/c4ccc(OC(F)(F)F)cc4)ccc32)cc1 [Compound 7f−E, (E)-1-(4-isopropoxyphenyl)-5-(4-(trifluoromethoxy)styryl)-1H-benzo[d]imidazole] | 160 to 162 | > 100000 | > 50 |  |  |  |  |  |  |  |  |  |  |
| CC(C)Oc1ccc(-n2cnc3cc(/C=C\c4ccc(OC(F)(F)F)cc4)ccc32)cc1 [Compound 7f−Z, (Z)-1-(4-isopropoxyphenyl)-5-(4-(trifluoromethoxy)styryl)-1H-benzo[d]imidazole] | 161 to 162 | 9470 | 33.9 | 2190 | 0.03 | 15600 |  |  |  |  |  |  |  |
| CC(C)Oc1ccc(-n2cnc3cc(/C=C/c4ccc(C(F)(F)F)cc4)ccc32)cc1 [Compound 7g−E, (E)-1-(4-isopropoxyphenyl)-5-(4-(trifluoromethyl)styryl)-1H-benzo[d]imidazole] | 166 to 167 | > 100000 | > 50 |  |  |  |  |  |  |  |  |  |  |
| CC(C)Oc1ccc(-n2cnc3cc(/C=C\c4ccc(C(F)(F)F)cc4)ccc32)cc1 [Compound 7g−Z, (Z)-1-(4-isopropoxyphenyl)-5-(4-(trifluoromethyl)styryl)-1H-benzo[d]imidazole] | 165 to 166 | 24400 | 29.1 | 2700 | 0.13 |  |  |  |  |  |  |  |  |
| CC(C)Oc1ccc(-n2cnc3cc(/C=C/c4ccc5ccccc5c4)ccc32)cc1 [Compound 7h−E, (E)-1-(4-isopropoxyphenyl)-5-(2-(naphthalen-2-yl)vinyl)-1H-benzo[d]imidazole] | 172 to 173 | > 100000 | > 50 |  |  |  |  |  |  |  |  |  |  |
| CC(C)Oc1ccc(-n2cnc3cc(/C=C\c4ccc5ccccc5c4)ccc32)cc1 [Compound 7h−Z, (Z)-1-(4-isopropoxyphenyl)-5-(2-(naphthalene-2-yl)vinyl)-1H-benzo[d]imidazole] | 170 to 171 | 18900 | ≤ 15 | 129 | 0.03 | 294000 | 7.58 |  |  |  |  |  |  |
| COc1ccc(-n2cnc3cc(NCc4ccc(OC)c(O)c4)ccc32)cc1 [Compound 13a, 2-methoxy-5-(((1-(4-methoxyphenyl)-1H-benzo[d]imidazol-5-yl)amino)methyl)phenol] | 182.1 to 183.3 | 62600 | 47.6 | 2780 | 0.03 | 13200 |  |  |  |  |  |  |  |
| COc1ccc(-n2cnc3cc(NCc4ccc(O)c(OC)c4)ccc32)cc1 [Compound 13b, 2-methoxy-4-(((1-(4-methoxyphenyl)-1H-benzo[d]imidazol-5-yl)amino)methyl)phenol] | 157.6 to 159 | 87300 | 65.8 | 3930 | 0.20 | 52300 |  |  |  |  |  |  |  |
| COc1ccc(-n2cnc3cc(NCc4cc(OC)c(OC)cc4OC)ccc32)cc1 [Compound 13d, 1-(4-methoxyphenyl)-N-(2,4,5-trimethoxybenzyl)-1H-benzo[d]imidazol-5-amine] | 167.8 to 169.8 | 135000 | 13.8 | 656 | 0.03 | 56700 |  |  |  |  |  |  |  |
| COc1ccc(-n2cnc3cc(NCc4cc(OC)c(O)c(OC)c4)ccc32)cc1 [Compound 13e, 2,6-dimethoxy-4-(((1-(4-methoxyphenyl)-1H-benzo[d]imidazol-5-yl)amino)methyl)phenol] | 115.7 to 118.1 | 88800 | 50.5 | 4390 | 0.22 | 50300 |  |  |  |  |  |  |  |
| COc1ccc(-n2cnc3cc(NCc4ccc(C(C)(C)C)cc4)ccc32)cc1 [Compound 13f, N-(4-(tert-butyl)benzyl)-1-(4-methoxyphenyl)-1H-benzo[d]imidazol-5-amine] | 175.8 to 176.9 | 102000 | 11.9 | 173 | 0.03 | 178000 |  |  |  |  |  |  |  |
| COc1ccc(CNc2ccc3c(c2)ncn3-c2ccc(OC)cc2)cc1 [Compound 13g, N-(4-methoxybenzyl)-1-(4-methoxyphenyl)-1H-benzo[d]imidazol-5-amine] | 128 to 129.3 | 100000 | 55.4 | 4690 | 0.30 | 65900 |  |  |  |  |  |  |  |
| COc1ccc(-n2cnc3cc(NCc4cccc(O)c4)ccc32)cc1 [Compound 13h, 3-(((1-(4-methoxyphenyl)-1H-benzo[d]imidazol-5-yl)amino)methyl)phenol] | 182.9 to 184.3 | 40300 | > 100 | 36000 | 0.42 | 11900 |  |  |  |  |  |  |  |
| COc1ccc(-n2cnc3cc(NCc4ccc(Cl)c(Cl)c4)ccc32)cc1 [Compound 13i, N-(3,4-dichlorobenzyl)-1-(4-methoxyphenyl)-1H-benzo[d]imidazol-5-amine] | 134.1 to 135.8 | 81700 | 53.1 | 25400 | 0.49 | 19400 |  |  |  |  |  |  |  |
| COc1ccc(-n2cnc3cc(NCc4ccc(C(F)(F)F)cc4)ccc32)cc1 [Compound 13j, 1-(4-methoxyphenyl)-N-(4-(trifluoromethyl)benzyl)-1H-benzo[d]imidazol-5-amine] | 198.3 to 200.5 | 109000 | 63.8 | 5490 | 0.04 | 8530 |  |  |  |  |  |  |  |
| CC(C)Oc1ccc(-n2cnc3cc(/C=C\c4ccc(C(C)(C)O)cc4)ccc32)cc1 [LHF−535, reference compound] |  | 3680 | 3.04 | 114 | 0.03 | 304000 |  | concentration-dependent | little or no effect; also recorded: did not exhibit an antiviral effect |  |  |  |  |
| COc1ccc(-n2cnc3cc(NCc4ccc(C(C)C)cc4)ccc32)cc1 [ST−193, reference compound] |  | 56300 | 44.5 | 200 | 0.01 | 83200 |  |  |  |  |  |  |  |
| N-(2, 4-dimethoxybenzyl)-1-(4-methoxyphenyl)-1H-benzo[d]imidazol-5-amine [Compound 13c] |  |  |  |  | 0.03 |  |  |  |  | 74200 | 15.5 | 39500 | 825 |
